PubChem BioAssay (NCI)
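In this assay, cells in 96-well plates receive the compound at five concentrations for 48 hours. Endpoints are linearly interpolated between the surrounding concentrations. Abbreviation: GI50, concentration required for 50% inhibition of growth. TGI denotes the concentration required for complete inhibition of growth.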

Assays:
Assay in all cases: inhibition of tumour cell growth, NCI panel, 48 h
IGROV1 ovarian = system: IGROV1 ovarian
CCRF-CEM leukemia = system: CCRF-CEM leukemia
SF-539 CNS = system: SF-539 CNS
SNB-75 CNS = system: SNB-75 CNS
RXF 393 renal = system: RXF 393 renal
SK-MEL-28 melanoma = system: SK-MEL-28 melanoma
SN12C renal = system: SN12C renal
786-0 renal = system: 786-0 renal
OVCAR-3 ovarian = system: OVCAR-3 ovarian
T-47D breast = system: T-47D breast
MDA-MB-231 breast = system: MDA-MB-231 breast
KM12 colon = system: KM12 colon
UACC-257 melanoma = system: UACC-257 melanoma
MDA-MB-468 breast = system: MDA-MB-468 breast
BT-549 breast = system: BT-549 breast
SF-295 CNS = system: SF-295 CNS
NCI/ADR-RES ovarian = system: NCI/ADR-RES ovarian
SF-268 CNS = system: SF-268 CNS
DU-145 prostate = system: DU-145 prostate
M14 melanoma = system: M14 melanoma
SK-MEL-2 melanoma = system: SK-MEL-2 melanoma
OVCAR-8 ovarian = system: OVCAR-8 ovarian
NCI-H226 lung = system: NCI-H226 lung
SK-OV-3 ovarian = system: SK-OV-3 ovarian
MDA-MB-435 = system: MDA-MB-435
ACHN renal = system: ACHN renal
MCF7 breast = system: MCF7 breast
A549 NSCLC = system: A549 NSCLC
HOP-62 NSCLC = system: HOP-62 NSCLC
OVCAR-4 ovarian = system: OVCAR-4 ovarian
RPMI-8226 leukemia = system: RPMI-8226 leukemia
TK-10 renal = system: TK-10 renal
NCI-H522 lung = system: NCI-H522 lung
HS 578T breast = system: HS 578T breast
MALME-3M melanoma = system: MALME-3M melanoma
NCI-H23 lung = system: NCI-H23 lung
SK-MEL-5 melanoma = system: SK-MEL-5 melanoma
MOLT-4 leukemia = system: MOLT-4 leukemia
HCT-116 colon = system: HCT-116 colon
NCI-H460 lung = system: NCI-H460 lung
CAKI-1 renal = system: CAKI-1 renal
EKVX NSCLC = system: EKVX NSCLC
COLO 205 colon = system: COLO 205 colon
A498 renal = system: A498 renal
U251 CNS = system: U251 CNS
HOP-92 NSCLC = system: HOP-92 NSCLC
UACC-62 melanoma = system: UACC-62 melanoma
UO-31 renal = system: UO-31 renal
HL-60(TB) leukemia = system: HL-60(TB) leukemia
OVCAR-5 ovarian = system: OVCAR-5 ovarian
LOX IMVI melanoma = system: LOX IMVI melanoma
HT29 colon = system: HT29 colon
SNB-19 CNS = system: SNB-19 CNS
PC-3 prostate = system: PC-3 prostate
SW-620 colon = system: SW-620 colon
HCC-2998 colon = system: HCC-2998 colon

With `CCCCSc1nc(Nc2ccc(S(N)(=O)=O)cc2)c(C#N)c(-c2ccc(Cl)cc2)n1` the GI50 (IGROV1 ovarian) was 5.79 µM, the TGI (IGROV1 ovarian) was 41.3 µM and the GI50 (CCRF-CEM leukemia) was 7.69 µM. For the same compound, the TGI (CCRF-CEM leukemia) was > 100 µM, the GI50 (SF-539 CNS) was 1.62 µM and the TGI (SF-539 CNS) was 3.23 µM. It also gave a GI50 (SNB-75 CNS) of 1.1 µM, a TGI (SNB-75 CNS) of 3.22 µM and a GI50 (RXF 393 renal) of 1.81 µM. It also gave a TGI (RXF 393 renal) of 5.12 µM, a GI50 (SK-MEL-28 melanoma) of 5.98 µM and a TGI (SK-MEL-28 melanoma) of 31.1 µM. The GI50 (SN12C renal) was 2.08 µM, the TGI (SN12C renal) was 8.71 µM and the GI50 (786-0 renal) was 1.98 µM. For the same compound, the TGI (786-0 renal) was 5.11 µM, the GI50 (OVCAR-3 ovarian) was 2.23 µM and the TGI (OVCAR-3 ovarian) was 4.91 µM. For the same compound, the GI50 (T-47D breast) was 19.9 µM, the TGI (T-47D breast) was > 100 µM and the GI50 (MDA-MB-231 breast) was 2.14 µM. The TGI (MDA-MB-231 breast) was 5.3 µM, the GI50 (KM12 colon) was 6.26 µM and the TGI (KM12 colon) was 30.2 µM. For the same compound, the GI50 (UACC-257 melanoma) was 14.9 µM, the TGI (UACC-257 melanoma) was > 100 µM and the GI50 (MDA-MB-468 breast) was 14.5 µM. It also gave a TGI (MDA-MB-468 breast) of 36.1 µM, a GI50 (BT-549 breast) of 17.9 µM and a TGI (BT-549 breast) of 62 µM. It also gave a GI50 (SF-295 CNS) of 1.82 µM, a TGI (SF-295 CNS) of 3.78 µM and a GI50 (NCI/ADR-RES ovarian) of 2.98 µM. For the same compound, the TGI (NCI/ADR-RES ovarian) was 9.58 µM, the GI50 (SF-268 CNS) was 5.64 µM and the TGI (SF-268 CNS) was 42.1 µM. For the same compound, the GI50 (DU-145 prostate) was 4.95 µM, the TGI (DU-145 prostate) was 18 µM and the GI50 (M14 melanoma) was 2.36 µM. For the same compound, the TGI (M14 melanoma) was 6.09 µM, the GI50 (SK-MEL-2 melanoma) was 27.6 µM and the TGI (SK-MEL-2 melanoma) was > 100 µM. The GI50 (OVCAR-8 ovarian) was 2.08 µM, the TGI (OVCAR-8 ovarian) was 4.93 µM and the GI50 (NCI-H226 lung) was 2.29 µM. It also gave a TGI (NCI-H226 lung) of 6 µM, a GI50 (SK-OV-3 ovarian) of 3.63 µM and a TGI (SK-OV-3 ovarian) of 14.1 µM. For the same compound, the GI50 (MDA-MB-435) was 4.01 µM, the TGI (MDA-MB-435) was > 100 µM and the GI50 (ACHN renal) was 1.88 µM. For the same compound, the TGI (ACHN renal) was 3.67 µM, the GI50 (MCF7 breast) was 4.59 µM and the TGI (MCF7 breast) was > 100 µM. For the same compound, the GI50 (A549 NSCLC) was 2.61 µM, the TGI (A549 NSCLC) was 9.81 µM and the GI50 (HOP-62 NSCLC) was 2.18 µM. For the same compound, the TGI (HOP-62 NSCLC) was 4.97 µM, the GI50 (OVCAR-4 ovarian) was 1.83 µM and the TGI (OVCAR-4 ovarian) was 3.89 µM. For the same compound, the GI50 (RPMI-8226 leukemia) was 5.17 µM, the TGI (RPMI-8226 leukemia) was > 100 µM and the GI50 (TK-10 renal) was 2.32 µM. It also gave a TGI (TK-10 renal) of 6.86 µM, a GI50 (NCI-H522 lung) of 10.6 µM and a TGI (NCI-H522 lung) of 70.5 µM. For the same compound, the GI50 (HS 578T breast) was 2.46 µM, the TGI (HS 578T breast) was 8.71 µM and the GI50 (MALME-3M melanoma) was 3.03 µM. For the same compound, the TGI (MALME-3M melanoma) was 11 µM, the GI50 (NCI-H23 lung) was 3.43 µM and the TGI (NCI-H23 lung) was 12.4 µM. For the same compound, the GI50 (SK-MEL-5 melanoma) was 8.46 µM, the TGI (SK-MEL-5 melanoma) was 33.5 µM and the GI50 (MOLT-4 leukemia) was 3.15 µM. For the same compound, the TGI (MOLT-4 leukemia) was 20.1 µM, the GI50 (HCT-116 colon) was 2 µM and the TGI (HCT-116 colon) was 4.35 µM. For the same compound, the GI50 (NCI-H460 lung) was 2.08 µM, the TGI (NCI-H460 lung) was 4.66 µM and the GI50 (CAKI-1 renal) was 1.94 µM. It also gave a TGI (CAKI-1 renal) of 4.8 µM, a GI50 (EKVX NSCLC) of 3.51 µM and a TGI (EKVX NSCLC) of 19.7 µM. For the same compound, the GI50 (COLO 205 colon) was 13.4 µM, the TGI (COLO 205 colon) was 42.9 µM and the GI50 (A498 renal) was 6.41 µM. The TGI (A498 renal) was 27.8 µM, the GI50 (U251 CNS) was 1.58 µM and the TGI (U251 CNS) was 3.28 µM. For the same compound, the GI50 (HOP-92 NSCLC) was 1.01 µM, the TGI (HOP-92 NSCLC) was 4.71 µM and the GI50 (UACC-62 melanoma) was 2.8 µM. For the same compound, the TGI (UACC-62 melanoma) was 8.98 µM, the GI50 (UO-31 renal) was 2 µM and the TGI (UO-31 renal) was 6.33 µM. The GI50 (HL-60(TB) leukemia) was 50.6 µM, the TGI (HL-60(TB) leukemia) was > 100 µM and the GI50 (OVCAR-5 ovarian) was 4.77 µM. It also gave a TGI (OVCAR-5 ovarian) of 22.9 µM, a GI50 (LOX IMVI melanoma) of 1.72 µM and a TGI (LOX IMVI melanoma) of 3.33 µM. The GI50 (HT29 colon) was 2.73 µM, the TGI (HT29 colon) was 9.84 µM and the GI50 (SNB-19 CNS) was 3.65 µM. It also gave a TGI (SNB-19 CNS) of 15.7 µM, a GI50 (PC-3 prostate) of 5.39 µM and a TGI (PC-3 prostate) of 26 µM. It also gave a GI50 (SW-620 colon) of 3.3 µM, a TGI (SW-620 colon) of 12.4 µM and a GI50 (HCC-2998 colon) of 6.56 µM. For the same compound, the TGI (HCC-2998 colon) was 78.3 µM.
